Values joined by “and” are separate entries in the source; they are usually repeats but may differ in a detail not shown here. Identical values can stand only once.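 Where inhibition never reached the appropriate level, the endpoint shown equals the highest concentration tested. Otherwise, values were interpolated linearly from a five-concentration, 48-hour dose response in 96-well plates. At the GI50, growth is halved. At the TGI there is no net growth.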
What was measured:
Experiment in all cases: DTP human tumour cell line panel, 48 h
PC-3 prostate = tested on: PC-3 prostate
HCT-116 colon = tested on: HCT-116 colon
CAKI-1 renal = tested on: CAKI-1 renal
HS 578T breast = tested on: HS 578T breast
CCRF-CEM leukemia = tested on: CCRF-CEM leukemia
HCT-15 colon = tested on: HCT-15 colon
RPMI-8226 leukemia = tested on: RPMI-8226 leukemia
MDA-MB-231 breast = tested on: MDA-MB-231 breast
KM20L2 colon = tested on: KM20L2 colon
DMS 114 small cell lung = tested on: DMS 114 small cell lung
LXFL 529 NSCLC = tested on: LXFL 529 NSCLC

SMILES	TGI (PC-3 prostate)	TGI (HCT-116 colon)	TGI (CAKI-1 renal)	TGI (HS 578T breast)	TGI (CCRF-CEM leukemia)	TGI (HCT-15 colon)	TGI (RPMI-8226 leukemia)	TGI (MDA-MB-231 breast)	GI50 (PC-3 prostate)	GI50 (HCT-116 colon)	GI50 (CAKI-1 renal)	GI50 (HS 578T breast)	GI50 (CCRF-CEM leukemia)	GI50 (HCT-15 colon)	GI50 (RPMI-8226 leukemia)	GI50 (MDA-MB-231 breast)	TGI (KM20L2 colon) [µM]	TGI (DMS 114 small cell lung) [µM]	TGI (LXFL 529 NSCLC) [µM]
CCN1CCCCC(=N\O)/C(=N/O)CCCC1	> 100 µM	> 100 µM	> 100 µM	> 100 µM	> 100 µM	> 100 µM	> 100 µM	> 100 µM	–	–	–	–	–	–	–	–	–	–	–
C=C1C(=O)O[C@H]2[C@H]1CC/C(COC(=O)C(=O)c1cn(C)c3ccc(OC)cc13)=C\CC[C@@]1(C)O[C@@H]21	10.8 µM	7.38 µM	21.8 µM	50.4 µM	22.4 µM	3.23 µM	19.5 µM	10.6 µM	5.89 µM	3.61 µM	7.25 µM	11.3 µM	2.39 µM	1.75 µM	2.34 µM	4.39 µM	–	–	–
CS(=O)(=O)CS(=O)CS(=O)CS(=O)CC(NC(=O)CCC(N)C(=O)O)C(=O)O (stereo not given)	> 100 µM	> 100 µM	> 100 µM	> 100 µM	> 100 µM	> 100 µM	> 100 µM	> 100 µM	–	–	–	–	–	–	–	–	–	–	–
CCCCc1nc2cc(/C=C/C(=O)NO)ccc2n1CCN(CC)CC	16.2 µM	0.571 µM	0.943 µM	33 µM	> 100 µM	22.4 µM	> 100 µM	5.43 µM	0.327 µM	0.115 µM	0.237 µM	0.515 µM	0.317 µM	1.47 µM	0.176 µM	0.485 µM	–	–	–
CN(Cc1ccccc1)C1(N(C)Cc2ccccc2)CC1	–	> 100 µM	> 100 µM	–	> 100 µM	> 100 µM	–	–	–	–	–	–	–	–	–	–	> 100	> 100	> 100
CC(C)(CCC(C)(C)c1ccccc1)c1ccccc1	> 100 µM	29.4 µM	48.2 µM	53.4 µM	39.9 µM	45.7 µM	36.1 µM	31.5 µM	–	–	–	–	–	–	–	–	–	–	–
Nc1nc(Nc2ccc3c(c2)CCC(N2CCCC2)CC3)nn1-c1cc2c(nn1)-c1ccccc1CCC2 (stereo not given)	2.14 µM	2.02 µM	2.05 µM	3.66 µM	4.67 µM	2.14 µM	3.81 µM	3.04 µM	0.629 µM	0.754 µM	0.531 µM	1.08 µM	1.24 µM	0.839 µM	1.4 µM	1.46 µM	–	–	–
CN(C)CCNC(=O)c1cccc2c1nc(-c1ccccn1)c1ccccc12	–	23 µM	61.9 µM	–	51.7 µM	30.6 µM	–	–	–	–	–	–	–	–	–	–	–	36.3	–
Cc1nn(C)c(=S)n(C)c1=O	–	10.8 µM	–	–	> 100 µM	> 100 µM	14.8 µM	–	–	–	–	–	–	–	–	–	> 100	0.842	54.6
NCC(=O)CCC(=O)O	> 100 µM	> 100 µM	> 100 µM	> 100 µM	> 100 µM	> 100 µM	> 100 µM	> 100 µM	> 100 µM	> 100 µM	> 100 µM	> 100 µM	> 87.2 µM	> 100 µM	> 100 µM	> 100 µM	–	–	–
C=C1C(=O)O[C@H]2[C@H]1CC(=O)/C(C)=C\CC[C@@]1(C)O[C@@H]21	8.7 µg/mL	4.97 µg/mL	3.45 µg/mL	9.16 µg/mL	1.4 µg/mL	3.68 µg/mL	1.3 µg/mL	8.82 µg/mL	4.53 µg/mL	1.26 µg/mL	1.19 µg/mL	4.43 µg/mL	0.443 µg/mL	0.83 µg/mL	0.514 µg/mL	4.58 µg/mL	–	–	–
CC(C)(C)C(=O)OCC(COC(=O)C(C)(C)C)[N+](=O)[O-]	–	> 100 µM	> 100 µM	–	> 100 µM	> 100 µM	> 100 µM	–	–	–	–	–	–	–	–	–	–	> 100	> 100
O=[N+]([O-])c1ccc(O)c2ncccc12	> 100 µM	> 100 µM and 12.5 µM	> 100 µM and 16.5 µM	> 100 µM	> 100 µM	> 100 µM and 18.8 µM	> 100 µM	> 100 µM and 20.6 µM	35.8 µM and 4.02 µM	–	–	–	–	–	–	38.4 µM and 4.4 µM	–	–	–
COc1ccc(Cn2cc(Cn3c(=O)c(-c4nc5ccccc5[nH]4)cc4ccccc43)nn2)c(OC)c1OC	> 100 µM	1.25 µM and 1.73 µM	1.47 µM and 3.92 µM	–	–	> 100 µM	1.15 µM	1.54 µM and 3.07 µM	0.313 µM	0.094 µM and 0.0954 µM	0.35 µM and 0.396 µM	0.0778 µM and 0.168 µM	0.174 µM and 0.443 µM	0.378 µM	0.129 µM	0.292 µM and 0.451 µM	–	–	–
CC1=N/C(=C\c2ccc([N+](=O)[O-])cc2)C(=O)O1	–	> 100 µM	–	–	–	> 100 µM	> 100 µM	–	–	–	–	–	–	–	–	–	> 100	> 100	> 100

Source: PubChem BioAssay (NCI)
